# Data published in patent US20250114313A1, “OLIGO-BENZAMIDE ANALOGS AND THEIR USE IN CANCER TREATMENT” (BOARD OF REGENTS, THE UNIVERSITY OF TEXAS SYSTEM, priority 2022, published 2025).
# “Also recorded” adds a separate entry of the source.
# Assays:
# [1] = tested on: SUM-159 cells with LIPA KO; test: CellTiter-Glo, SUM-159 LIPA KO cells; type: cell-based; conditions: Homo sapiens, SUM159; SUM-159 stably transfected mCherry-RAMP4, CellTiter-Glo
# Protocol: (§1) Cell viability assays: Cells were seeded in 96-well plates (2×10^3 cells/well) one day before the treatment. Cells were treated with varying concentrations of ERX-41 or ERX-11 analogs for 3-6 days. Then effects of ERX-41 or ERX-11 analogs on cell viability were measured in triplicate or sextuplicate with multiple biological replicates using the WST-1 (Promega), MTT as previously described^33 or CellTiter-Glo 2.0 (Promega) assays.
# Lentiviral constructs cloning: LentiCRISPRv2 vector was used for CRSPR KO experiments. sgRNAs, which were chosen from human CRISPR knockout pooled library, were cloned into lentiCRISPRv2 vector^34. Human LIPA cDNA (GenBank: BC012287) or mouse LIPA cDNA (NM_021460) were clone into pWPI for over expression experiments. For TurboID experiment, the LIPA-TurboID sequence was cloned into pCW57-MCS1-2A-MCS2 vector. LentiCRISPR v2 was purchased from Addgene (Addgene #52961; //n2t.net/addgene:52961; RRID:Addgene_52961) (via Feng Zhang). pWPI was purchased from Addgene (Addgene #12254; //n2t.net/addgene:12254; RRID:Addgene_12254) (via Didier Trono). pCW57-MCS1-2A-MCS2 was purchased from Addgene (#71782) (via Adam Karpf). Human LIPA gene is referred as LIPA, while mouse LIPA gene is referred as mLIPA in this disclosure. […]
# [2] = target: T1, lysosomal acid lipase (LAL) protein (Homo sapiens, UniProt P38571); test: Cellular thermal shift assay, LAL; type: binding; conditions: 10 μM, SUM-159 cells
# T1 construct: heat stability of LAL or vinculin protein in SUM-159 cells; endogenous in cells; host or cells: SUM-159
# Protocol: Cellular Thermal Shift Assay (CETSA): Cellular Thermal Shift Assays were performed as described previously^36. Briefly, cells were treated with DMSO or 10 μM ERX-41 for 30 min, then trypsinized, pelleted and resuspended in PBS supplemented with Halt protease inhibitor cocktail (Thermo Scientific), with DMSO or 10 μM ERX-41. Resuspended cells were aliquoted into PCR strips. The cells were incubated in thermal cycler (Bio-rad) at gradient temperatures for 3 minutes, followed by incubation at 25° C. for 3 minutes. Then cells were snap-frozen in liquid nitrogen. Freeze-thaw the cells twice using liquid nitrogen. Then transfer samples into Eppendorf tubes, followed by briefly vortex and centrifuge at 20,000 g for 20 minutes at 4° C. Mix cleared cell lysates with ⅓ volume of 4× Laemmli sample buffer. After boiling, cell lysates were resolved in SDS-PAGE followed by western blotting.
# [3] = tested on: HSPA5, DDIT3, sXBP1 mRNA in TNBC cells; test: RT-qPCR of ER stress / UPR genes, TNBC cells; type: cell-based, Human
# Protocol: Real-time quantitative PCR (RT-qPCR): Total RNA was prepared from breast cancer cells using the RNeasy Mini Kit (Qiagen) according to the manufacturer protocols. Subsequently, total RNAs were reverse transcribed into cDNA using iScript Reverse Transcription Supermix (Bio-rad) and by using SYBR Green on an Illumina Real-Time PCR system.
# TNBC cells = test: Global de novo protein synthesis (puromycin labeled nascent proteins), TNBC cells; type: cell-based, Human; conditions: 1 μM
# Protocol: Western blotting: Whole cell lysates from breast cancer cells were prepared with 2× sample buffer (60 mM Tris-HCl, pH 6.8, 2% sodium dodecyl sulfate, 10% glycerol), and before loading mixed with loading buffer (5% 2-mercaptoethanol, 0.1% bromophenol blue) and boiled for denaturation, as previously described.^33 Proteins were separated by SDS-PAGE and subjected to Western analysis using antibodies. To detect nascent translated proteins, puromycin (final concentration 10 μg/mL) was added into cell plates 30 minutes before harvesting cells. Then samples were subjected to the Western blotting. Nascent proteins were detected by anti-puromycin antibody.
# [4] = tested on: 21 human preclinical TNBC cell line models; test: CellTiter-Glo cell viability, TNBC cell lines; type: cell-based; conditions: 21 TNBC cell lines, read-out: anti-proliferative IC50, CellTiter-Glo
# Protocol: as §1
# [5] = tested on: SUM-159 LIPA KO xenografts; test: SUM-159 LIPA KO xenografts; type: in vivo, SCID mice; conditions: i.p., 10 mg/kg/day
# Protocol: Knockout studies: For xenograft knockout tumor models, 1.8×10^6SUM159 parental, or 1.8×10^6SUM159-LIPA KO cells were harvested with 1% trypsin-EDTA, washed and resuspended in sterile PBS. Cells were initially implanted into the mammary fat pads of six-week-old female C.B-17 (SCID) mice purchased from Envigo (Indianapolis, IN, USA). Mice were monitored twice weekly for tumor growth measured by Vernier calipers where tumor volume was calculated by the formula (length×width^2)/2. Tumors were dissected into 2 mm cubes when they reached 800 mm^3 in size and subsequently implanted into the mammary fat pad of twelve SCID female mice. Once tumor fragments reached 150 mm^3 in size, mice were randomly divided into vehicle group (n=6, control, 0.3% Hydroxy cellulose, i.p.) and treatment group (n=6, ERX-41, 10 mg/kg/day/i.p.). Institutional guidelines were followed to determine experimental end points.
# T1 sequence (P38571 77-399): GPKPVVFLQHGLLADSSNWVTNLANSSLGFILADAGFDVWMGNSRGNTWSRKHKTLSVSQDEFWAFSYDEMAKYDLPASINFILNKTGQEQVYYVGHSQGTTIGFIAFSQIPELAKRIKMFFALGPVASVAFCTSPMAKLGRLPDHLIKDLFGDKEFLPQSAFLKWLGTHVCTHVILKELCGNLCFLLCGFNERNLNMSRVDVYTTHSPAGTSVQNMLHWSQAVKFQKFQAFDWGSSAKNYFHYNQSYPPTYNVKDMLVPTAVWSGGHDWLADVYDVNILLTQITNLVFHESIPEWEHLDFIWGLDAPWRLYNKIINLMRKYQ
smiles,measurement,setting,value
CC(C)COc1cc(C(=O)Nc2ccc(C(=O)N[C@H]3CC[C@H](C)CC3)cc2OCC(C)C)ccc1NC(=O)c1ccc([N+](=O)[O-])c(OCCO)c1 [ERX-41],IC50,[1],~4 µM
same,thermal stability of LAL,[2],stabilize the thermal stability of LAL
same,"upregulation of HSPA5, DDIT3, sXBP1 mRNA","[3]; 1 μM, TNBC cells",60-80 fold
same,"expression of sXBP1 and DDIT3, parental SUM-159","[3]; RT-qPCR, parental SUM-159 cells",induces expression of UPR genes sXBP1 and DDIT3
same,global de novo protein synthesis,TNBC cells,blocked; also recorded: blocks de novo protein synthesis
same,IC50,[4],< 0.25 µM
same,response of LIPA KO xenografts,[5],did not respond
